One experiment concerns the target Melanocortin receptor 4 (Homo sapiens, UniProt P32245). The format is functional, cell-based.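 Note: Cell-based assay with luminescence read-out, confirmatory dose-response testing for agonist activity of biased ligands at MC4R; human U2OS cells with tagged receptor and beta-arrestin; potency of agonists that increase receptor coupling to beta-arrestin.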
Experiment [1] addresses T1, Mitochondrial peptide methionine sulfoxide reductase (Bos taurus, UniProt P54149).
T1 sequence (P54149 whole entry): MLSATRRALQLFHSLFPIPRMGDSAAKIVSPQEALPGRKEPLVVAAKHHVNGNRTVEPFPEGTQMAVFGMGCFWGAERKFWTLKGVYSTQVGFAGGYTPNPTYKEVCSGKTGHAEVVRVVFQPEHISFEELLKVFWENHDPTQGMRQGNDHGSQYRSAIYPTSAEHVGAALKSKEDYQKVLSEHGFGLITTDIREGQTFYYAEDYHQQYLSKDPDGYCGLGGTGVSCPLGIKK
The format is functional.

Another experiment has as its target T2, Protein RecA (Mycobacterium tuberculosis, UniProt P9WHJ3).
T2 sequence (P9WHJ3 whole entry): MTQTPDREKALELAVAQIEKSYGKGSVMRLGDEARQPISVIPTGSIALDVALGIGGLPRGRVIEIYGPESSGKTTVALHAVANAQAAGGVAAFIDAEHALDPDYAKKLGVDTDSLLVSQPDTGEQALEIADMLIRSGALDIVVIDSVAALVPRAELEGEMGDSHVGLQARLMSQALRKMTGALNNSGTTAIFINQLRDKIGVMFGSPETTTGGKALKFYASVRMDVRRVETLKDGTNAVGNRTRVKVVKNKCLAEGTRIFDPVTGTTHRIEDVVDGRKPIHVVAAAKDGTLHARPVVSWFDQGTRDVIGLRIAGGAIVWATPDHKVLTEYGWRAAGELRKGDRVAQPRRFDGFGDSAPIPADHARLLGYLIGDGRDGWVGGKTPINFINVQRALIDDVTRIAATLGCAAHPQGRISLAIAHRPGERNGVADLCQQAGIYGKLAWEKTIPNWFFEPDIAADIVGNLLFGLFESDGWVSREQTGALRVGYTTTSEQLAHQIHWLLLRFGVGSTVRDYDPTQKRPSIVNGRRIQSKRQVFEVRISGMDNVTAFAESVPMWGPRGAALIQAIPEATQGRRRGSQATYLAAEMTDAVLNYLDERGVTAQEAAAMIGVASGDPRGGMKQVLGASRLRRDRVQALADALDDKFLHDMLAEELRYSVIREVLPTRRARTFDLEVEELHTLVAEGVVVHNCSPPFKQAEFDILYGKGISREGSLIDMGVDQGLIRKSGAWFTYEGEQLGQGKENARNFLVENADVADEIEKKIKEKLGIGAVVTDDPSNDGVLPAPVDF
The experiment can be described thus: Fluorescence Cell-Free Homogeneous Dose Retest to Identify Inhibitors of RecA-Intein Splicing Activity. [Related pubchem assays (depositor defined):AID2097, AID2223, AID489010, AID492950]. The format is functional.

The target in experiment [2] is T1, Mitochondrial peptide methionine sulfoxide reductase. Description: Absorbance-based biochemical high throughput dose response assay for activators of Methionine sulfoxide reductase A (MsrA). It counts as functional.
Experiment [3] has as its target T3, Aryl hydrocarbon receptor (Homo sapiens, UniProt P35869).
T3 sequence (P35869 whole entry): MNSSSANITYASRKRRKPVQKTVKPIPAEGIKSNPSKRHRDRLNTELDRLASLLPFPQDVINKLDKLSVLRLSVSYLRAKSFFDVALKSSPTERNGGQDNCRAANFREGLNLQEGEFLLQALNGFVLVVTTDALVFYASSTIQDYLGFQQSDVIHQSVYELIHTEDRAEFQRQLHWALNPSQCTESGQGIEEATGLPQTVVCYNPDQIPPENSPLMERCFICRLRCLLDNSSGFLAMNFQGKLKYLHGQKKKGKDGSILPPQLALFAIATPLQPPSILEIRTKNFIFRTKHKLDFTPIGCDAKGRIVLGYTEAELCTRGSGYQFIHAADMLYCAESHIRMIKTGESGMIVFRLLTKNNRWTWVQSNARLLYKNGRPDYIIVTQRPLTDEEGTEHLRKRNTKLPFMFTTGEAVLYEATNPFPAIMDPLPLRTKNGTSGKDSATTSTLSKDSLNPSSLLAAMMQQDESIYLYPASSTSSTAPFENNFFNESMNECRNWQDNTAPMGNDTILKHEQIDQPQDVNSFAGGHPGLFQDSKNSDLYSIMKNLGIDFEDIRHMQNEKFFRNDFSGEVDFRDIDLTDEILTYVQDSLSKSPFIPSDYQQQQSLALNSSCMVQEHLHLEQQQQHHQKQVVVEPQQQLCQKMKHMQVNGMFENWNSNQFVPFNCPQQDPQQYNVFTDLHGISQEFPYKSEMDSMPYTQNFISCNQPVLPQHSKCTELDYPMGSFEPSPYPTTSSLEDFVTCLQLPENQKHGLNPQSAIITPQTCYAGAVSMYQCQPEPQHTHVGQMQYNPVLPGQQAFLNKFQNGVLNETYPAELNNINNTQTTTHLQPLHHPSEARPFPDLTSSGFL
The experiment can be described thus: Luminescence-based cell-based high throughput dose response assay for activators of the Aryl Hydrocarbon Receptor (AHR). [Related pubchem assays: 2796 (Primary screen (AHR activators in singlicate)), 2845 (Confirmation screen (AHR activators in triplicate)), 434939 (Counterscreen (PXR activators in triplicate)), 2804 (Summary (AHR activators))]. It counts as ADME. A general note: Counterscreens check selectivity or assay interference.

Experiment [4] concerns the target T4, Replicative DNA helicase DnaB (Mycobacterium tuberculosis, UniProt P9WMR3).
T4 sequence (P9WMR3 whole entry): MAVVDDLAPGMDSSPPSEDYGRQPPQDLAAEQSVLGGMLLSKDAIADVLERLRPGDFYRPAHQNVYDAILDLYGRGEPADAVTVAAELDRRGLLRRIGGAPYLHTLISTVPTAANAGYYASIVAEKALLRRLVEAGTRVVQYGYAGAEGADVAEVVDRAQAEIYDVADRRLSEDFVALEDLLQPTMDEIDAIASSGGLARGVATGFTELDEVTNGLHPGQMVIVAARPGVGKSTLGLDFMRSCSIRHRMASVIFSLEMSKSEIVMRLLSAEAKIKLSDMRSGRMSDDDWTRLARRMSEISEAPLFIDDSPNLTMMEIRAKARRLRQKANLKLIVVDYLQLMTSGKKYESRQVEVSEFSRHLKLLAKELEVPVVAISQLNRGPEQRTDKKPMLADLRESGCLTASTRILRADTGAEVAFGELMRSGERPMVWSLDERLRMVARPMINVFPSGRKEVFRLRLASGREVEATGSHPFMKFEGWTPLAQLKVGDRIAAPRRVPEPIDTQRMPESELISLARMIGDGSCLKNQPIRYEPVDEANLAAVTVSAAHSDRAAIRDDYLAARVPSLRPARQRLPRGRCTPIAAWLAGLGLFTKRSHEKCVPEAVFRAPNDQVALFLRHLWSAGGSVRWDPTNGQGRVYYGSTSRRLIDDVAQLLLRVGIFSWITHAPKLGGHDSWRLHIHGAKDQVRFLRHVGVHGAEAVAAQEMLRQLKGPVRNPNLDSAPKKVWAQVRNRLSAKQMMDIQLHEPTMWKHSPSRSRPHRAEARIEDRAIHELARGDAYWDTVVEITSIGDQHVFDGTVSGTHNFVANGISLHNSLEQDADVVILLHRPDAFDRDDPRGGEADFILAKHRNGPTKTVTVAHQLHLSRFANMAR
The experiment can be described thus: DnaB intein splicing inhibitors, dose response, biochemical, cell-free fluorescence (AID 449749). It counts as functional.

Another experiment addresses T5, Aminopeptidase N (Plasmodium falciparum FcB1/Columbia, UniProt O96935).
T5 sequence (O96935 whole entry): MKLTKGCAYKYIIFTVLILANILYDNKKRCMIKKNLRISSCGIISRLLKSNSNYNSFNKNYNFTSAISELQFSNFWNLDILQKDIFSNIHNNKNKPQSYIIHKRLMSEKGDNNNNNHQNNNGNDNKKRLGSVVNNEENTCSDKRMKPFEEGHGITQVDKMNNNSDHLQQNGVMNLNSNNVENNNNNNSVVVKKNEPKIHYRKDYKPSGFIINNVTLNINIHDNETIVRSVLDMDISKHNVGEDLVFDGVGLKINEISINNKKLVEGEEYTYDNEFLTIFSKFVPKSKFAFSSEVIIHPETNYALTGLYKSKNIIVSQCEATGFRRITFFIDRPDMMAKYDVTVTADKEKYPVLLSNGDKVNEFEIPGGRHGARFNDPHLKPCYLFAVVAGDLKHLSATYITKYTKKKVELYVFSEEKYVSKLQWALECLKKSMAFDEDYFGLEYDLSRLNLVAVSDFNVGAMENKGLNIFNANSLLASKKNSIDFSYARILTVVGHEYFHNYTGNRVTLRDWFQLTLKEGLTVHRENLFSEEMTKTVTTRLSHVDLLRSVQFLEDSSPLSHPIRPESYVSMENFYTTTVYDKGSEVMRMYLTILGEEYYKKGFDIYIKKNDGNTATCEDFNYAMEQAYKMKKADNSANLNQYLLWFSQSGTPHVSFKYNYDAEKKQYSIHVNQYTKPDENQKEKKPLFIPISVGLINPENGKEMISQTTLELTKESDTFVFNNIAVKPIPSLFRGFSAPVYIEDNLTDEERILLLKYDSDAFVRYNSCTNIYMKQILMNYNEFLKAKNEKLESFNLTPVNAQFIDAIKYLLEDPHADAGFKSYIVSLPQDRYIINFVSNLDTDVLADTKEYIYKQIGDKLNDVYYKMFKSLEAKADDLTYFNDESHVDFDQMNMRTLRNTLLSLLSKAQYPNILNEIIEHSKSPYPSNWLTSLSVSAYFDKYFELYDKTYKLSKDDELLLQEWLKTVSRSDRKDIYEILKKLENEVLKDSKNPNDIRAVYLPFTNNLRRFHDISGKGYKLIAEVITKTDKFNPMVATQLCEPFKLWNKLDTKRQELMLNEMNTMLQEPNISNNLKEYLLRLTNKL
Description: P. falciparum M1AAP inhibitors, biochemical, fluorogenic H-Leu-NHMec substrate, 1536-well (AID 1445). On the set-up: species or system Plasmodium falciparum 3D7, 3D7.

Experiment [5] in a line: AlphaScreen signal interference compounds, dose response, artefact control for ARNT-TACC3 interaction inhibitor project, biochemical, luminescence, cherry-pick (AID 651705).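 Note: AlphaScreen bead proximity signal that flags compounds interfering with the detection technology; potency reflects signal decrease which marks the compound as an assay artifact.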 It counts as functional. For orientation: Bead proximity is the source of the signal in Alpha formats.

Activity calls are given as the source filed them. A value given as a limit tells only on which side of the number the result lay.

The EC50 is the concentration giving half of the maximal effect. The term IC50 denotes the midpoint of a concentration-inhibition curve. As a reminder, the AC50 is the midpoint of the concentration-response curve, whichever way the signal moves.

Sequence of Melanocortin receptor 4 (P32245 whole entry): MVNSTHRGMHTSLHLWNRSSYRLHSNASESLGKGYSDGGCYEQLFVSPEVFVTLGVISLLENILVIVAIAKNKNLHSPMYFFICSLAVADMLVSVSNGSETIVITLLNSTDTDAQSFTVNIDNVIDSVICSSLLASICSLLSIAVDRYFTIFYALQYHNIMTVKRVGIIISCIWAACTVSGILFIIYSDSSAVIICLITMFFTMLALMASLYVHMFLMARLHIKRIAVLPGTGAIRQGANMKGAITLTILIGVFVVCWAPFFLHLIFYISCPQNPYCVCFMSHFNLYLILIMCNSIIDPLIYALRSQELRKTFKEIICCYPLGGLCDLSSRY

Consider `COc1ccc(NC(=O)Nc2nc(C(N)Cc3ccc(C(F)(F)F)cc3)cs2)cc1` (stereo not drawn), for which, at Melanocortin receptor 4, the EC50 was > 89.2 µM (inactive).
In the case of `O=C1/C(=N/c2ccc(O)cc2)C(Cl)=C(O)c2ccccc21`, the IC50 in experiment [1] is 155 µM (inactive). Also, the EC50 at Protein RecA is 3.48 µM (active); in experiment [2], > 104 µM (inactive); in experiment [3], > 1.13 µM (active). Further, the concentration at half-maximal activity (AC50) in experiment [4] is 3.36 µM (active).
Regarding `O=C(N/N=C\c1cccc([N+](=O)[O-])c1O)C1COc2ccccc2O1` (stereo not drawn), the IC50 on Aminopeptidase N was 31.4 µM (active). In addition, the concentration at half-maximal activity (AC50) in experiment [5] was 90.6 µM (active).

Source of the values: ChEMBL document CHEMBL1201862, “PubChem BioAssay data set” (2004).
